Entries after “also recorded” stand apart in the source; their conditions may differ.
Assays:
DPPIV = target: T1, DPPIV (Homo sapiens, UniProt P27487); assay: Inhibitory activity against human recombinant DPPIV (IC50); assay type: biochemical; settings: selected substances
T1 construct: purchased R&D Systems 9168-SE-010
Protocol: (§1) Data were analysed by nonlinear regression with GraphPrism (version 8.3.1). The measurement results are given as values of the mean inhibitory concentration IC50 and its linearized form via the negative decimal logarithm of pIC50.

PREP = target: T2, PREP (Homo sapiens, UniProt P48147); assay: Inhibitory activity against human recombinant PREP (IC50); assay type: biochemical; settings: selected substances
T2 construct: purchased R&D Systems 4308-SE-010
T2 sequence (P48147 1-710): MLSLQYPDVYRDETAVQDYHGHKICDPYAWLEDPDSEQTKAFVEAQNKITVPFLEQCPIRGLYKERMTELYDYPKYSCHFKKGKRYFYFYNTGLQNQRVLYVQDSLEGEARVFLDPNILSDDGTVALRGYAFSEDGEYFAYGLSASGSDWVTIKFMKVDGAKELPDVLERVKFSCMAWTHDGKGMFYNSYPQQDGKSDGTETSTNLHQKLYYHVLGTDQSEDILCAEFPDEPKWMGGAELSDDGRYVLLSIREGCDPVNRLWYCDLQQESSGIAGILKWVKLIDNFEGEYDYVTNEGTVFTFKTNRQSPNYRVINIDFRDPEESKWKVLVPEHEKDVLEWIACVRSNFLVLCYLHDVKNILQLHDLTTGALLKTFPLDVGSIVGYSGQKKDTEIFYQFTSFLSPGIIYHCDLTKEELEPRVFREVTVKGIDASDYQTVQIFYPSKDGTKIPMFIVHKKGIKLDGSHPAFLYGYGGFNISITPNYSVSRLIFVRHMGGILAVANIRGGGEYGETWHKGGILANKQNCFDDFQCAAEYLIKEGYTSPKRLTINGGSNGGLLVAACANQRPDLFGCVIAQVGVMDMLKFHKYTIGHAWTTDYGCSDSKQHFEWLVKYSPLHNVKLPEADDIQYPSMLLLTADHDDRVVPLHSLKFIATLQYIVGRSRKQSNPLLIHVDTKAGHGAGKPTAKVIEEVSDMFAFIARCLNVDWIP
Protocol: as §1

CCRF-CEM = assay: Cytotoxicity (XTT) on CCRF-CEM cells; assay type: cell-based, human; settings: 72 h
Protocol: (§2) The cytotoxicity of the substances was measured on four tumour cell lines: CCRF-CEM, HepG2, Hela, HL-60. All cell lines were purchased from ATCC (Manassas, VA, USA). Cells were cultured in RPMI-1640 or DMEM medium containing 10% (wt/wt) FBS and 1% (wt/wt) GlutaMax. Cells were distributed at 2,000-10,000 per well of a 384-well plate (Thermo Fisher Scientific, Waltham, USA) and incubated overnight. After 24 hours, test substance solutions (10 or 100 μmol·l^−1) were added to the wells and the cells were incubated with the test substances at 37° C. and 5% (vol./vol.) CO2 for another 72 h. XTT dye (XTT cell proliferation kit II, Roche Diagnostics GmbH, Mannheim, Germany) was added to the wells according to the manufacturer's protocol. After one hour of incubation with the dye, the absorbance at 495 nm was measured and the signal was compared with the control (100% viability=cells without test substance).

HL-60 = assay: Cytotoxicity (XTT) on HL-60 cells; assay type: cell-based, human; settings: 72 h
Protocol: as §2

Hela = assay: Cytotoxicity (XTT) on Hela cells; assay type: cell-based, human; settings: 72 h
Protocol: as §2

HepG2 = assay: Cytotoxicity (XTT) on HepG2 cells; assay type: cell-based, human; settings: 72 h
Protocol: as §2

[1] = Stability in human plasma; assay type: in vitro ADME; settings: 37° C.; for Stability in human plasma: up to 120 minutes
Protocol: (§3) An aliquot of plasma was extracted with 120 μl of methanol containing caffeine as an internal standard. The solution was vortexed (5 min) and centrifuged (20500 g; 10 min), the supernatant was transferred to a vial, and 1 μl of the mixture was used for LC-MS analysis. […] Results are presented as the percentage of test substance versus control (aliquot taken at time 0).

[2] = Stability in murine plasma; assay type: in vitro ADME; settings: 37° C.; for Stability in murine plasma: up to 120 minutes
Protocol: as §3

[3] = Stability in murine microsomes; assay type: in vitro ADME; settings: murine microsomes 0.5 mg/ml, 5 μmol·l^−1 test substance, NADPH
Protocol: The incubation of 37.5 μl of the mixture was terminated by the addition of 150 μl of acetonitrile containing caffeine as an internal standard, cooled to 0° C. The mixture was vortexed (5 min) and centrifuged (20500 g; 10 min). The supernatant was transferred to a vial, and 1 μl of the mixture was used for LC-MS analysis. […] Results are presented as the percentage of test substance versus control (aliquot taken at time 0).

[4] = test system: four human tumour cell lines; assay: Cytotoxicity on four human tumour cell lines (summary statement); assay type: cell-based; settings: two concentrations differing by 1 order of magnitude
Protocol: as §2

T1 sequence (P27487 whole entry): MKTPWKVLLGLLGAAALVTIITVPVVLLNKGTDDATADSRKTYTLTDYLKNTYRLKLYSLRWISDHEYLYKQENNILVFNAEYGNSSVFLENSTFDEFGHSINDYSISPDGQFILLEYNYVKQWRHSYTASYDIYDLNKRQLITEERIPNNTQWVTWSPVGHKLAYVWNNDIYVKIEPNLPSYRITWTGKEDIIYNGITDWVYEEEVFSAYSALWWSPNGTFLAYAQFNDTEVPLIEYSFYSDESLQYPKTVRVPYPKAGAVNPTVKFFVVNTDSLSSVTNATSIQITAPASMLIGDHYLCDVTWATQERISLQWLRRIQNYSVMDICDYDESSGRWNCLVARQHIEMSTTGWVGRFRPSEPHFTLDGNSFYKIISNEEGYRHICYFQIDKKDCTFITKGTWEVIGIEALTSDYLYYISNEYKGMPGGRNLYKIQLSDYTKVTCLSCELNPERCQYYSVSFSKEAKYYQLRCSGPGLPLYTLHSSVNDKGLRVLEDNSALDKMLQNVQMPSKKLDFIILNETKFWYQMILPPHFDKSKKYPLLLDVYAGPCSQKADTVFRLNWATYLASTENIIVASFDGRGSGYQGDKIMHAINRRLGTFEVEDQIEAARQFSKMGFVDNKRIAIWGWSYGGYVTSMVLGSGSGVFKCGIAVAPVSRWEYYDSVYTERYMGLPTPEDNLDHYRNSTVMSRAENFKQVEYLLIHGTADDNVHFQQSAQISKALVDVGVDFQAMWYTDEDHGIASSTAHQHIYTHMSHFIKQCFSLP

| Compound | IC50 (DPPIV) [nM] | IC50 (PREP) [nM] | Cell viability CEM 10 μM (CCRF-CEM) [% vs. control] | Cell viability CEM 100 μM (CCRF-CEM) [% vs. control] | Cell viability HL60 10 μM (HL-60) [% vs. control] | Cell viability HL60 100 μM (HL-60) [% vs. control] | Cell viability HeLa S3 10 μM (Hela) [% vs. control] | Cell viability HeLa S3 100 μM (Hela) [% vs. control] | Cell viability HepG2 10 μM (HepG2) [% vs. control] | Cell viability HepG2 100 μM (HepG2) [% vs. control] | Stability in human plasma [1] | Stability in murine plasma [2] | Stability in murine microsomes [3] | Cytotoxicity [4] | substance degraded within 120 minutes ([1]; 120 minutes) [%] | substance degraded within 20 minutes ([2]; 20 minutes) [%] |
| --- | --- | --- | --- | --- | --- | --- | --- | --- | --- | --- | --- | --- | --- | --- | --- | --- |
| CCCCCNC(=O)C(=O)[C@@H]1CCCN1C(=O)CNC(=O)c1ccnc2ccccc12 [Compound 3j, (S)—N-(2-Oxo-2-(2-(2-oxo-2-(pentylamino)acetyl)pyrrolidin-1-yl)ethyl)quinoline-4-carboxamide] | > 4000 | 0.4 | 94 | 119 | 109 | 123 | 93 | 109 | 76 | 124 | – | – | – | – | – | – |
| CC(C)(C)OC(=O)CNC(=O)C(=O)[C@@H]1CCCN1C(=O)CNC(=O)c1ccnc2ccccc12 [Compound 3l, tert-Butyl (S)-(2-oxo-2-(1-((quinoline-4-carbonyl)glycyl)pyrrolidin-2-yl)acetyl)glycinate] | > 4000 | 0.6 | 104 | 121 | 104 | 111 | 95 | 100 | 97 | 109 | – | – | – | – | – | – |
| COc1ccc(CCNC(=O)C(=O)[C@@H]2CCCN2C(=O)CNC(=O)c2ccnc3ccccc23)cc1OC [Compound 3e, (S)—N-(2-(2-(2-((3,4-Dimethoxyphenethyl)amino)-2-oxoacetyl)pyrrolidin-1-yl)-2-oxoethyl)quinoline-4-carboxamide] | > 4000 | 0.5 | 108 | 85 | 101 | 106 | 104 | 86 | 92 | 90 | stable | stable | partially stable | – | – | – |
| COc1ccc(CNC(=O)C(=O)[C@@H]2CCCN2C(=O)CNC(=O)c2ccnc3ccccc23)cc1OC [Compound 3b, (S)—N-(2-(2-(2-((3,4-Dimethoxybenzyl)amino)-2-oxoacetyl)pyrrolidin-1-yl)-2-oxoethyl)quinoline-4-carboxamide] | > 4000 | 0.4 | 106 | 88 | 88 | 100 | 106 | 78 | 97 | 92 | stable; also recorded: excellent stability | stable; also recorded: high stability | stable; also recorded: high stability | low cytotoxicity | – | – |
| COC(=O)[C@H](Cc1ccccc1)NC(=O)CNC(=O)C(=O)[C@@H]1CCCN1C(=O)CNC(=O)c1ccnc2ccccc12 [Compound 5f, Methyl (2-oxo-2-((S)-1-((quinoline-4-carbonyl)glycyl)pyrrolidin-2-yl)acetyl)glycyl-L-phenylalaninate] | – | 0.3 | 98 | 72 | 114 | 98 | 96 | 100 | 78 | 121 | stable | degrade immediately | partially stable | – | 25 | 100 |

Source: patent US12371416B2, “Compounds for inhibition of fibroblast activation protein” (USTAV ORGANICKE CHEMIE A BIOCHEMIE AV CR, V. V. I., priority 2020, dated 2025)
